# From the NIST ThermoML archive (doi:10.1016/j.jct.2016.07.041)
# Numbers after ± are expanded uncertainties.
# Assays:
# [1] = 101.33 kPa, Liquid; for viscosity: Capillary tube (Ostwald / Ubbelohde) method; for mass density: Vibrating tube method
# [2] = xn = mol fraction of the nth substance listed; conditions: 101 kPa, Liquid, x1 = 1; for viscosity: Capillary tube (Ostwald / Ubbelohde) method; for mass density: Vibrating tube method
viscosity ([1]; 293.15 K),mass density ([1]; 293.15 K),viscosity ([1]; 303.15 K),mass density ([1]; 303.15 K),viscosity ([1]; 313.15 K),mass density ([1]; 313.15 K),viscosity ([1]; 323.15 K),mass density ([1]; 323.15 K),viscosity ([1]; 333.15 K),mass density ([1]; 333.15 K),viscosity ([2]; 293.15 K),mass density ([2]; 293.15 K),viscosity ([2]; 303.15 K),mass density ([2]; 303.15 K),viscosity ([2]; 313.15 K),mass density ([2]; 313.15 K),viscosity ([2]; 323.15 K),mass density ([2]; 323.15 K),viscosity ([2]; 333.15 K),mass density ([2]; 333.15 K),Structure (SMILES)
139.12 ± 8.7 mPa·s,1205.1 ± 1.2 kg/m3,82.49 ± 5 mPa·s,1198 ± 1.2 kg/m3,52.33 ± 3.1 mPa·s,1190.8 ± 1.2 kg/m3,35.16 ± 2.1 mPa·s,1183.7 ± 1.2 kg/m3,24.69 ± 1.5 mPa·s,1176.8 ± 1.2 kg/m3,–,–,–,–,–,–,–,–,–,–,CCCCn1cc[n+](C)c1.F[B-](F)(F)F [1-butyl-3-methylimidazolium tetrafluoroborate]
–,–,–,–,–,–,–,–,–,–,139.12 ± 8.7 mPa·s,1205.1 ± 1.2 kg/m3,82.49 ± 5 mPa·s,1198 ± 1.2 kg/m3,52.33 ± 3.1 mPa·s,1190.8 ± 1.2 kg/m3,35.16 ± 2.1 mPa·s,1183.7 ± 1.2 kg/m3,24.69 ± 1.5 mPa·s,1176.8 ± 1.2 kg/m3,CCCCn1cc[n+](C)c1.F[B-](F)(F)F [1-butyl-3-methylimidazolium tetrafluoroborate] + NCCO
23.65 ± 1.4 mPa·s,1015.5 ± 1 kg/m3,14.75 ± 0.89 mPa·s,1007.6 ± 1 kg/m3,9.78 ± 0.59 mPa·s,999.7 ± 1 kg/m3,6.81 ± 0.41 mPa·s,991.7 ± 1 kg/m3,4.99 ± 0.3 mPa·s,983.6 ± 1 kg/m3,–,–,–,–,–,–,–,–,–,–,NCCO [2-aminoethan-1-ol]
